According to ChEMBL document CHEMBL1147460, “Syntheses and SAR studies of 4-(heteroarylpiperdin-1-yl-methyl)-pyrrolidin-1-yl-acetic acid antagonists of the human CCR5 chemokine receptor” (Bioorg Med Chem Lett, 2004):

What was measured:
[1] = Plasma clearance in rat; type: ADME, organism-based; conditions: read-out: Clp
[2] = Volume of distribution in rat; type: ADME, organism-based; conditions: in vivo, read-out: Vdss
[3] = biological target: T1, C-C chemokine receptor type 5 (Homo sapiens, UniProt P51681); experiment: Inhibition of human C-C chemokine receptor type 5 assayed using [125I]-MIP-1 alpha as radioligand
T1 sequence (P51681 whole entry): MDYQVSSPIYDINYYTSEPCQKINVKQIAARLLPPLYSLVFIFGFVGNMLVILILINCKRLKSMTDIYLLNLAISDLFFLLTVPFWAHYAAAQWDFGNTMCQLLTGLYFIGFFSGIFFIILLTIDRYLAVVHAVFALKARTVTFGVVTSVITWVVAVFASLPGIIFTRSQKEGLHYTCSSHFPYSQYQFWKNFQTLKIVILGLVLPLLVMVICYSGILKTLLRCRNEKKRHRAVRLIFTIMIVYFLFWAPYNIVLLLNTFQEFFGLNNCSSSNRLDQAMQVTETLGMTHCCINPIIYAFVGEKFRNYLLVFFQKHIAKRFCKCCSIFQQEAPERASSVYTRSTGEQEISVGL

[4] = Oral bioavailability in rat; type: ADME, organism-based; conditions: in vivo
[5] = Half life in rat; type: ADME, organism-based; conditions: in vivo
[6] = tested on: HeLa; experiment: Anti viral activity was determined in anti HIV-1 infectivity assay in HeLa Magi cells; type: functional, cell-based; conditions: Homo sapiens
[7] = tested on: HeLa; experiment: Anti viral activity in anti HIV-1 infectivity assay in HeLa Magi cells; type: functional; conditions: Homo sapiens
[8] = biological target: T1, C-C chemokine receptor type 5; experiment: Inhibitory concentration against C-C chemokine receptor type 5 using [125I]-MIP-1 alpha as radioligand

Compound	IC50 [3]	IC50 [6]	other results
O=C(O)[C@@H](CC1CC1)N1C[C@H](CN2CCC(c3[nH]c(Cc4ccccc4)nc3Cl)CC2)[C@@H](c2cccc(F)c2)C1	0.7 nM	0.4 nM	clearance [1]: 60.5 mL/min/kg; Vd [2]: 1.05 L/kg; bioavailability [4]: 1.1%; half-life [5]: 31.8 min
O=C(O)[C@@H](C1CCCCC1)N1C[C@H](CN2CCC(c3csc(-c4ccccc4)n3)CC2)[C@@H](c2ccccc2)C1	1.1 nM	–	IC90 [7]: 100 nM
CCc1nc(Cc2ccccc2)sc1C1CCN(C[C@H]2CN([C@@H](C(=O)O)C(C)C)C[C@@H]2c2cccc(F)c2)CC1	1 nM	0.13 nM	clearance [1]: 1.15 mL/min/kg; Vd [2]: 0.54 L/kg; bioavailability [4]: 19%; half-life [5]: 50.4 min
CCc1nc(Cc2ccccc2)oc1C1CCN(C[C@H]2CN([C@H](CC3CCC3)C(=O)O)C[C@@H]2c2cccc(F)c2)CC1	0.89 nM	0.13 nM	–
CCc1nc(Cc2ccccc2)[nH]c1C1CCN(C[C@H]2CN([C@H](CC3CCC3)C(=O)O)C[C@@H]2c2cccc(F)c2)CC1	0.57 nM	0.4 nM	–
O=C(O)[C@@H](C1CCCCC1)N1C[C@H](CN2CCC(c3nocc3-c3ccccc3)CC2)[C@@H](c2ccccc2)C1	27 nM	–	–
O=C(O)[C@@H](C1CCCCC1)N1C[C@H](CN2CCC(c3nc(-c4ccccc4)c[nH]3)CC2)[C@@H](c2ccccc2)C1	23 nM	–	–
CC(C)[C@H](C(=O)O)N1C[C@H](CN2CCC(c3cnc(Cc4ccccc4)[nH]3)CC2)[C@@H](c2ccccc2)C1	7 nM	300 nM	–
CC(C)[C@H](C(=O)O)N1C[C@H](CN2CCC(c3cnc(Cc4ccccc4)o3)CC2)[C@@H](c2ccccc2)C1	3.8 nM	300 nM	–
O=C(O)[C@@H](C1CCCCC1)N1C[C@H](CN2CCC(c3cnc(-c4ccccc4)[nH]3)CC2)[C@@H](c2ccccc2)C1	6.2 nM	–	IC90 [7]: 33 nM
O=C(O)[C@@H](C1CCCCC1)N1C[C@H](CN2CCC(c3cc(-c4ccccc4)no3)CC2)[C@@H](c2ccccc2)C1	–	–	IC50 [8]: 18.1 nM

Continued, in another order:

IC50 [3]	IC50 [6]	Compound	other results
0.76 nM	0.13 nM	CCc1nc(Cc2ccccc2)sc1C1CCN(C[C@H]2CN([C@H](CC3CCC3)C(=O)O)C[C@@H]2c2cccc(F)c2)CC1	–
0.6 nM	0.13 nM	O=C(O)[C@@H](CC1CCC1)N1C[C@H](CN2CCC(c3[nH]c(Cc4ccccc4)nc3Cl)CC2)[C@@H](c2cccc(F)c2)C1	–
0.38 nM	100 nM	O=C(O)[C@@H](CC1CCC1)N1C[C@H](CN2CCC(c3c[nH]c(Cc4ccccc4)n3)CC2)[C@@H](c2ccccc2)C1	–
0.73 nM	100 nM	O=C(O)[C@@H](CC1CC1)N1C[C@H](CN2CCC(c3c[nH]c(Cc4ccccc4)n3)CC2)[C@@H](c2ccccc2)C1	–
0.23 nM	0.13 nM	O=C(O)C(CC1CC1)N1CC(c2ccccc2)[C@@H](CN2CCC(c3cnc(Cc4ccccc4)s3)CC2)C1 (some centres undefined)	–
0.23 nM	0.13 nM	O=C(O)C(CC1CCC1)N1CC(c2ccccc2)[C@@H](CN2CCC(c3cnc(Cc4ccccc4)s3)CC2)C1 (some centres undefined)	–
0.29 nM	–	O=C(O)[C@@H](C1CCCCC1)N1C[C@H](CN2CCC(c3cnc(Cc4ccccc4)s3)CC2)[C@@H](c2ccccc2)C1	IC90 [7]: 0.14 nM
1.6 nM	3.7 nM	O=C(O)[C@@H](CC1CC1)N1C[C@H](CN2CCC(c3cnc(Cc4ccccc4)o3)CC2)[C@@H](c2ccccc2)C1	–
0.34 nM	3.7 nM	O=C(O)[C@@H](CC1CCC1)N1C[C@H](CN2CCC(c3cnc(Cc4ccccc4)o3)CC2)[C@@H](c2ccccc2)C1	–
1.3 nM	–	O=C(O)[C@@H](C1CCCCC1)N1C[C@H](CN2CCC(c3csc(Cc4ccccc4)n3)CC2)[C@@H](c2ccccc2)C1	IC90 [7]: 33 nM
1.5 nM	–	O=C(O)[C@@H](C1CCCCC1)N1C[C@H](CN2CCC(c3ncc(Cc4ccccc4)o3)CC2)[C@@H](c2ccccc2)C1	IC90 [7]: 100 nM
2 nM	–	O=C(O)[C@@H](C1CCCCC1)N1C[C@H](CN2CCC(c3ncc(Cc4ccccc4)s3)CC2)[C@@H](c2ccccc2)C1	IC90 [7]: 33 nM
0.51 nM	11 nM	CC(C)[C@H](C(=O)O)N1C[C@H](CN2CCC(c3cnc(Cc4ccccc4)s3)CC2)[C@@H](c2ccccc2)C1	–
0.67 nM	–	O=C(O)[C@@H](C1CCCCC1)N1C[C@H](CN2CCC(c3cnc(Cc4ccccc4)[nH]3)CC2)[C@@H](c2ccccc2)C1	–
